“And” between values parts separate entries of the source, which are not always exact repeats. Identical values can stand only once. Like-named read-outs stand apart in the source and are kept apart here.
How the values were obtained:
[1] = Pharmacokinetics of obeticholic acid taken orally, in a monocomposition or with UDCA; format: in vivo
Experimental: A study of the pharmacokinetics of obeticholic acid in a monocom position and as part of a composition with ursodeoxycholic acid when taken orally was conducted.

patients with PBC = experiment: Effectiveness of the PBC treatment using various regimens (positive response, Paris2 system, 12 months); format: in vivo, human; settings: Paris2 criteria
Experimental: A double-blind clinical study on the effectiveness of the combined pharmaceutical composition comprising UDCA and OCA compared to UDCA was conducted.
To study the effectiveness, the tablet embodiments No. 15 and No. 16 were used.
A study on the effectiveness of the various treatment regimens for the patients with PBC was conducted. A total of three treatment regimens were used in the study: • 1) UDCA monocomposition at a dose of 15 mg/kg/day. • 2) Combined pharmaceutical composition in the pharmaceutical form with the modified release and at a dose of UDCA 15 mg/kg+OCA 5 mg per day. • 3) Combined pharmaceutical composition in the pharmaceutical form with the modified release and at a dose of UDCA 15 mg/kg+OCA 10 mg per day.
The studies were carried out for 12 months, during which the quality of the treatment was assessed by measuring biochemical and molecular biological markers (see above).
The evaluation of the effectiveness of the treatment was carried out on the basis of the Paris2 system, according to which the criteria for a satisfactory treatment are: • ALT level≤3-fold upper limit of normal (ULN); • AST level≤2-fold ULN; • normal bilirubin level.

[2] = test system: patients diagnosed with PBC; experiment: Double-blind clinical study: biochemical and molecular markers in blood of PBC patients treated with UDCA or UDCA+OCA; format: in vivo, human; settings: blood plasma
Experimental: To determine the concentration level values of the markers in the blood serum, chemiluminescence and enzyme immunoassay methods were used.
A double-blind clinical study was conducted on the effectiveness of the combined pharmaceutical composition comprising UDCA and OCA compared with the monocomposition comprising only UDCA for the patients with the following concentration level values of the claimed group of the markers (corresponding to 1 Stage of PBC): • IL-6—at least 10%; • Nf-kB—at least 5%; • MCP-1/CCL2—at least 5%; • Bcl-2—at least 5%; • TNF-α—at least 12%; • MDA—at least 0.5%.
The patients diagnosed with PBC were divided into 3 groups depending on the treatment regimen:
2) Group UDCA 15 mg/kg+OCA 5 mg;
3) Group UDCA 15 mg/kg+OCA 10 mg.
After the treatment, venous blood samples were taken from the patients and the concentrations of biochemical and molecular markers were determined.
As markers of the treatment effectiveness, two groups of markers were used: biochemical and molecular biological.
The first group included: ALT, AST, GGT (Gamma-glutamyl Transferase), AP and total bilirubin.
The second group included: TNF-α, IL-6, Nf-kB, MCP-1/CCL2, BCL-2, and MDA.

[3] = month 6 of treatment, listed as UDCA 15 mg/kg
[4] = month 12 of treatment, listed as UDCA 15 mg/kg

CC[C@H]1[C@@H](O)[C@@H]2[C@H](CC[C@]3(C)[C@@H]([C@H](C)CCC(=O)O)CC[C@@H]23)[C@@]2(C)CC[C@@H](O)C[C@@H]12 [OCA, obeticholic acid]
AUC(0-t) ([1]; in vivo, po): 34.8 ng·h/mL | bioavailability ([1]; in vivo, po, read-out: Bioavailability): 89% | Cmax ([1]; in vivo, po, read-out: Cmax): 16.7 ng/mL | Tmax ([1]; listed as OCA 5 mg): 0.667 h | AUCt ([1]; listed as OCA 10 mg): 66.1 ng·h/mL | Cmax ([1]; listed as OCA 10 mg): 26.4 ng/mL | Tmax ([1]; listed as OCA 10 mg): 1.5 h | bioavailability ([1]; listed as OCA 10 mg): 91%

C[C@H](CCC(=O)O)[C@H]1CC[C@H]2[C@@H]3[C@@H](O)C[C@@H]4C[C@H](O)CC[C@]4(C)[C@H]3CC[C@]12C [UDCA, ursodeoxycholic acid]
Number of patients with positive response to treatment (%) (patients with PBC): 58.82% | Number of patients with positive response to treatment (number) (patients with PBC; groups of 68, 65, 63 patients): 40 | ALT ([2]; month 1 of treatment): 80.4 U/l | ALT, in % of the initial value ([2]; month 1 of treatment): 97.22% | AP ([2]; month 1 of treatment): 352.5 U/l | AP, in % of the initial value ([2]; month 1 of treatment): 97.20% | AST ([2]; month 1 of treatment): 100.7 U/l | AST, in % of the initial value ([2]; month 1 of treatment): 95.72% | Bcl-2 ([2]; month 1 of treatment): 0.68 U/ml | Bcl-2, in % of the initial value ([2]; month 1 of treatment): 94.44% | GGT ([2]; month 1 of treatment): 198 U/l | GGT, in % of the initial value ([2]; month 1 of treatment): 95.42% | IL-6 ([2]; month 1 of treatment): 23.35 pg/mL | IL-6, in % of the initial value ([2]; month 1 of treatment): 99.19% | MCP-1/CCL2 ([2]; month 1 of treatment): 465.4 pg/mL | MCP-1/CCL2, in % of the initial value ([2]; month 1 of treatment): 99.34% | MDA ([2]; month 1 of treatment): 22.87 nmol/mL | MDA, in % of the initial value ([2]; month 1 of treatment): 99.09% | Nf-kB ([2]; month 1 of treatment): 64.4 pg/mL | Nf-kB, in % of the initial value ([2]; month 1 of treatment): 98.32% | TNF-α ([2]; month 1 of treatment): 0.33 ng/mL | TNF-α, in % of the initial value ([2]; month 1 of treatment): 100.00% | Total bilirubin ([2]; month 1 of treatment): 39.8 µmol/L | Total bilirubin, in % of the initial value ([2]; month 1 of treatment): 96.18% | ALT ([2]; month 3 of treatment): 74.81 U/l | ALT, in % of the initial value ([2]; month 3 of treatment): 90.46% | AP ([2]; month 3 of treatment): 290.6 U/l | AP, in % of the initial value ([2]; month 3 of treatment): 88.10% | AST ([2]; month 3 of treatment): 87.3 U/l | AST, in % of the initial value ([2]; month 3 of treatment): 82.98% | Bcl-2 ([2]; month 3 of treatment): 0.62 U/ml | Bcl-2, in % of the initial value ([2]; month 3 of treatment): 86.11% | GGT ([2]; month 3 of treatment): 178.8 U/l | GGT, in % of the initial value ([2]; month 3 of treatment): 86.17% | IL-6 ([2]; month 3 of treatment): 22.95 pg/mL | IL-6, in % of the initial value ([2]; month 3 of treatment): 97.49% | MCP-1/CCL2 ([2]; month 3 of treatment): 448 pg/mL | MCP-1/CCL2, in % of the initial value ([2]; month 3 of treatment): 95.62% | MDA ([2]; month 3 of treatment): 22.54 nmol/mL | MDA, in % of the initial value ([2]; month 3 of treatment): 97.66% | Nf-kB ([2]; month 3 of treatment): 64.1 pg/mL | Nf-kB, in % of the initial value ([2]; month 3 of treatment): 97.86% | TNF-α ([2]; month 3 of treatment): 0.324 ng/mL | TNF-α, in % of the initial value ([2]; month 3 of treatment): 98.18% | Total bilirubin ([2]; month 3 of treatment): 33.8 µmol/L | Total bilirubin, in % of the initial value ([2]; month 3 of treatment): 87.50% | ALT, in % of the initial value [2, 3]: 67.32% and 82.47% | AP, in % of the initial value [2, 3]: 63.93% and 74.45% | AST, in % of the initial value [2, 3]: 67.24% and 77.38% | Bcl-2, in % of the initial value [2, 3]: 95.24% and 80.56% | GGT, in % of the initial value [2, 3]: 65.16% and 75.28% | IL-6, in % of the initial value [2, 3]: 85.81% and 93.46% | MCP-1/CCL2, in % of the initial value [2, 3]: 88.00% and 92.08% | MDA, in % of the initial value [2, 3]: 95.36% and 96.92% | Nf-kB, in % of the initial value [2, 3]: 91.91% and 95.88% | TNF-α, in % of the initial value [2, 3]: 87.88% and 95.45% | ALT ([2]; month 9 of treatment): 62.47 U/l | ALT, in % of the initial value ([2]; month 9 of treatment): 75.54% | AP ([2]; month 9 of treatment): 247.5 U/l | AP, in % of the initial value ([2]; month 9 of treatment): 69.18% | AST ([2]; month 9 of treatment): 74.5 U/l | AST, in % of the initial value ([2]; month 9 of treatment): 70.82% | Bcl-2 ([2]; month 9 of treatment): 0.54 U/ml | Bcl-2, in % of the initial value ([2]; month 9 of treatment): 75.00% | GGT ([2]; month 9 of treatment): 141.5 U/l | GGT, in % of the initial value ([2]; month 9 of treatment): 68.19% | IL-6 ([2]; month 9 of treatment): 21.48 pg/mL | IL-6, in % of the initial value ([2]; month 9 of treatment): 91.25% | MCP-1/CCL2 ([2]; month 9 of treatment): 419.7 pg/mL | MCP-1/CCL2, in % of the initial value ([2]; month 9 of treatment): 89.58% | MDA ([2]; month 9 of treatment): 22.12 nmol/mL | MDA, in % of the initial value ([2]; month 9 of treatment): 95.84% | Nf-kB ([2]; month 9 of treatment): 61.4 pg/mL | Nf-kB, in % of the initial value ([2]; month 9 of treatment): 93.74% | TNF-α ([2]; month 9 of treatment): 0.3 ng/mL | TNF-α, in % of the initial value ([2]; month 9 of treatment): 90.91% | Total bilirubin ([2]; month 9 of treatment): 28.03 µmol/L | Total bilirubin, in % of the initial value ([2]; month 9 of treatment): 70.49% | ALT ([2]; month 12 of treatment): 55.67 U/l | ALT, in % of the initial value ([2]; month 12 of treatment): 67.32% | AP ([2]; month 12 of treatment): 235.36 U/l | AP, in % of the initial value ([2]; month 12 of treatment): 63.93% | AST ([2]; month 12 of treatment): 70.73 U/l | Bcl-2 ([2]; month 12 of treatment): 0.52 U/ml | GGT ([2]; month 12 of treatment): 135.2 U/l | GGT, in % of the initial value ([2]; month 12 of treatment): 65.16% | IL-6 ([2]; month 12 of treatment): 20.2 pg/mL | IL-6, in % of the initial value ([2]; month 12 of treatment): 85.81% | MCP-1/CCL2 ([2]; month 12 of treatment): 412.3 pg/mL | MCP-1/CCL2, in % of the initial value ([2]; month 12 of treatment): 88.00% | MDA ([2]; month 12 of treatment): 22.01 nmol/mL | MDA, in % of the initial value ([2]; month 12 of treatment): 95.36% | Nf-kB ([2]; month 12 of treatment): 60.2 pg/mL | Nf-kB, in % of the initial value ([2]; month 12 of treatment): 91.91% | TNF-α ([2]; month 12 of treatment): 0.29 ng/mL | TNF-α, in % of the initial value ([2]; month 12 of treatment): 87.88% | Total bilirubin ([2]; month 12 of treatment): 26.03 µmol/L | Total bilirubin, in % of the initial value ([2]; month 12 of treatment): 64.58% | AST, in % of the initial value [2, 4]: 67.24% and 67.23% | Bcl-2, in % of the initial value [2, 4]: 72% and 72.22%
